Experimental data as given in paper PMC4775387 (Neurochemical research, 2015).

System: D4 receptors, ICR mouse striatum
Assay: Antagonist effect on D-301-stimulated [35S]GTPγS binding in ICR mouse striatum
Format: biochemical
Conditions: antagonist concentrations up to 1 μM, unpublished data

Which “effect on D-301-stimulated [35S]GTPγS binding” value does the source give for `Clc1ccc(N2CCN(Cc3c[nH]c4ncccc34)CC2)cc1` [LY745870] here?
Its value is “no significant effect”.
